The results in this text go back to patent US20120214847A1, “2-[1-PHENYL-5-HYDROXY-4a-SUBSTITUTED-HEXAHYDROCYCLOPENTA[F]INDAZOL-5-YL]ETHYL PHENYL DERIVATIVES AS GLUCOCORTICOID RECEPTOR LIGANDS” (Merck Sharp & Dohme Corp., priority 2009, published 2012).

The assay deals with T1, human GR (Homo sapiens, UniProt P04150).
T1 construct: naturally expresses the human GR; endogenous in cells
T1 sequence (P04150 1-777): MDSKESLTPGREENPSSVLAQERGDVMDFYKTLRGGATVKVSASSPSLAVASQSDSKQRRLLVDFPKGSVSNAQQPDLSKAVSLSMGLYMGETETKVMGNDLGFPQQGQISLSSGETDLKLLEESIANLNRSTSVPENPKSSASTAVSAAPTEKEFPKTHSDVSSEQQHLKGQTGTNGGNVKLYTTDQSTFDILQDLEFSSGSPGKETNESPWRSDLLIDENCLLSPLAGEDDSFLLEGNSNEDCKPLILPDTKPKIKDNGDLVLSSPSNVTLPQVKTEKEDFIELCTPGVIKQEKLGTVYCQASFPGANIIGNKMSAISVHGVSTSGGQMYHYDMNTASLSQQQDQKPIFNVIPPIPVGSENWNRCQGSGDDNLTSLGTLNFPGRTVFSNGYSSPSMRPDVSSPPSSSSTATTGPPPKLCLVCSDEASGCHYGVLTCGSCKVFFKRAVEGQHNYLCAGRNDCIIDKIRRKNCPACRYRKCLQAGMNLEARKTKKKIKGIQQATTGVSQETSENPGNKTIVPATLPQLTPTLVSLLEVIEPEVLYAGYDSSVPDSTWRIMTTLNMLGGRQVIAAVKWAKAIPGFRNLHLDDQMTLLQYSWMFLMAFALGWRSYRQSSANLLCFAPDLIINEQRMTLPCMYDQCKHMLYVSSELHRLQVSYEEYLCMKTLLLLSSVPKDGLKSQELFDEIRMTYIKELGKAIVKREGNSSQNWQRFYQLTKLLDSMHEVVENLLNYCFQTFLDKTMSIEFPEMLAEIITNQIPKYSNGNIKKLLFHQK
Briefly: Transrepression assay (GITAR), TNFα-β-lactamase reporter in U937 cells. The class given is cell-based. The following applies: for EC50: IP = inflection point; for Emax: U-937, U937 cells. From the text:
Transrepression Assay (GITAR)
This assay assesses the ability of test compounds to control transcription from the TNFα-β-lactamase reporter gene in U937 cells, a human myelomonocytic leukemia cell line that naturally expresses the human GR. The assay measures compound dependent-repression of the TNFa promoter linked to a reporter gene.
The human U937 cells that had been stablely transfected with the TNF-a promoter driving ˜-lactamase are used for this assay. U937 cells contain an endogenous glucocorticoid receptor (GR). Cells are maintained in RPMI 1640 Growth medium (GibcoCat#11875-093) containing 25 mM HEPES, 10% FBS, 2 mM L-Glutamine, 1 mM Sodium pyruvate, 25 μg/ml Gentamicin (Gibed Cat#1571 0-064), 1:1000 2-Mercaptoethanol (Gibco Cat#21985-023) and 0.8 mg/ml G418 (Gibco Cat#10131-027). The density of the cells in the flask needs to be about 1×10^6-3×10^6/ml at the time of harvest. Usually, the cells are split to 1.2˜1.4×10^5/ml (1:10) 3 days prior to the assay. 50,000 cells/well are plated in 96 well black-walled plates the day of assay. Test compounds are added 10 J.lL/well, and cells are incubated at 37° C. for 30˜45 min. For assaying compounds, first dilute 1:10 in DMSO to make 1 mM, then further dilute 1:100 in medium to make 10× stock prior to adding to the cells. Add 50 ng/ml PMA (Sigma, cat#P8139) 10 μL/well to a final concentration 5 ng/ml, and 1 μg/ml LPS (Sigma, cat#L4130) 10 μL/well to a final concentration 100 ng/ml. Incubate cells at 370 C overnight for −18 hr. PMA is stored frozen as […] in DMSO. Dilute 1:10 in DMSO for a working stock of 10 μg/ml and store at −20° C. For assaying, dilute the 10 μg/ml working stock 1:200 in medium to make a 10× solution (50 ng/ml). Store frozen LPS at 1 mg/ml in PBS, dilute 1:1000 in medium to make 10×μg/ml) for the assay. Add 6× loading buffer (CCF2-AM) 20 μL/well, and incubate at room temperature for 70-90 min. […] The activity repressed by 100 nM dexamethasone alone is set as 100% activity.

Where [1] appears, read: activity repressed by 100 nM dexamethasone alone set as 100%.

One may read the EC50 as the concentration at which the effect is half-maximal. The low end stands for higher potency in that assay, the high end for lower potency in that assay. What is called Emax is the maximal effect, on the per cent scale that the assay sets.

Regarding `CC[C@]12Cc3cnn(-c4ccc(F)cc4)c3C=C1CC[C@@]2(O)CCc1ccccc1S(C)(=O)=O` [Example 42, (4aS,5R)-4a-Ethyl-1-(4-fluorophenyl)-5-{2-[2-(methylsulfonyl)phenyl]ethyl}-1,4,4a,5,6,7-hexahydrocyclopenta[f]indazol-5-ol], a half-maximal response (U937 cells) (EC50) required 11 nM. Further, the maximal effect (Emax) under setting [1] turned out to be 89%.
Turning to `CC[C@]12Cc3cnn(-c4ccc(F)cc4)c3C=C1CC[C@@]2(O)CCc1ccccc1C(O)C(N)=O` (stereo partly drawn) [Example 26, 2-(2-{2-[(4aS,5R)-4a-Ethyl-1-(4-fluorophenyl)-5-hydroxy-1,4,4a,5,6,7-hexahydrocyclopenta[f]indazol-5-yl]ethyl}phenyl)-2-hydroxyacetamide], the EC50 (U937 cells) amounted to 51 nM. Besides, for the setting “U937 cells, activity repressed by 100 nM dexamethasone alone set as 100%”, the “Transrepression U937 Cells GITAR Emax (%)” value was 86%.
For `CC[C@]12Cc3cnn(-c4ccc(F)cc4)c3C=C1CC[C@@]2(O)CC(O)c1ncccc1Cl` (stereo partly drawn) [Example 70, (4aS,5R)-5-[2-(3-Chloropyridin-2-yl)-2-hydroxyethyl]-4a-ethyl-1-(4-fluorophenyl)-1,4,4a,5,6,7-hexahydrocyclopenta[f]indazol-5-ol], under “U937 cells”, it took 142 nM to reach a half-maximal effect (EC50). The maximal response (Emax) under setting [1] amounted to 79%.
For `N#Cc1c(F)cccc1CC[C@]1(O)CCC2=Cc3c(cnn3-c3ccccc3)C[C@@]21C1CC1` [Example 28, 2-{2-[(4aR,5R)-4a-Cyclopropyl-5-hydroxy-1-phenyl-1,4,4a,5,6,7-hexahydrocyclopenta[f]indazol-5-yl]ethyl}-6-fluorobenzonitrile] the same measures were 122 nM and 88%.
In the same order, the values of `NC(=O)c1ccccc1CC[C@]1(O)CCC2=Cc3c(cnn3-c3ccc(F)cc3)C[C@@]21C1CC1` [Example 23, 2-{2-[(4aR,5R)-4a-Cyclopropyl-1-(4-fluorophenyl)-5-hydroxy-1,4,4a,5,6,7-hexahydrocyclopenta[f]indazol-5-yl]ethyl}benzamide] are 22 nM and 77%.
The molecule `NC(=O)Cc1c(F)cccc1CC[C@]1(O)CCC2=Cc3c(cnn3-c3ccc(F)cc3)C[C@@]21C1CC1` [Example 61, 2-(2-{2-[(4aR,5R)-4a-Cyclopropyl-1-(4-fluorophenyl)-5-hydroxy-1,4,4a,5,6,7-hexahydrocyclopenta[f]indazol-5-yl]ethyl}-6-fluorophenyl)acetamide] displayed an EC50 (U937 cells) of 16 nM. The molecule also had a maximal response (Emax) under setting [1] of 72%.
Where the note is “U937 cells”, `COc1ccnc(CC[C@]2(O)CCC3=Cc4c(cnn4-c4ccc(F)cc4)C[C@@]32C2CC2)c1C(N)=O` [Example 54, 2-{2-[(4aR,5R)-4a-Cyclopropyl-1-(4-fluorophenyl)-5-hydroxy-1,4,4a,5,6,7-hexahydrocyclopenta[f]indazol-5-yl]ethyl}-4-methoxypyridine-3-carboxamide] came in with a half-maximal effective concentration (EC50) of 48 nM. In addition, under setting [1], the Emax worked out at 77%.
In the case of `CC[C@]12Cc3cnn(-c4ccc(F)cc4)c3C=C1CC[C@@]2(O)CCc1ccccc1CCC(N)=O` [Example 22, 3-(2-{2-[(4aS,5R)-4a-Ethyl-1-(4-fluorophenyl)-5-hydroxy-1,4,4a,5,6,7-hexahydrocyclopenta[f]indazol-5-yl]ethyl}phenyl)propanamide], the concentration for a half-maximal effect (EC50) (U937 cells) is 148 nM. The same molecule showed an Emax under setting [1] of 89%.
As to `N#Cc1ccccc1CC[C@]1(O)CCC2=Cc3c(cnn3-c3cccnc3)C[C@@]21C1CC1` [Example 30, 2-{2-[(4aR,5R)-4a-Cyclopropyl-5-hydroxy-1-(pyridin-3-yl)-1,4,4a,5,6,7-hexahydrocyclopenta[f]indazol-5-yl]ethyl}benzonitrile], under “U937 cells”, the EC50 came to 178 nM. The molecule also came in with an Emax under setting [1] of 63%.
Take `NC(=O)CNC(=O)c1cccnc1CC[C@]1(O)CCC2=Cc3c(cnn3-c3ccc(F)cc3)C[C@@]21C1CC1` [Example 43, N-(2-Amino-2-oxoethyl)-2-{2-[(4aR,5R)-4a-cyclopropyl-1-(4-fluorophenyl)-5-hydroxy-1,4,4a,5,6,7-hexahydrocyclopenta[f]indazol-5-yl]ethyl}pyridine-3-carboxamide]: the EC50 (U937 cells) turned out to be 52 nM. This molecule also gave an Emax under setting [1] of 86%.
In turn, `CC[C@]12Cc3cnn(-c4ccc(F)cc4)c3C=C1CC[C@@]2(O)CC(O)c1cncc(F)c1` (stereo partly drawn) [Example 73, (4aS,5R)-4a-Ethyl-1-(4-fluorophenyl)-5-[2-(5-fluoropyridin-3-yl)-2-hydroxyethyl]-1,4,4a,5,6,7-hexahydrocyclopenta[f]indazol-5-ol] showed a concentration giving a half-maximal response (EC50) (U937 cells) of 198 nM. Besides, the maximal effect (Emax) under setting [1] amounted to 71%.
In the same order, the values of `CC[C@]12Cc3cnn(-c4ccc(F)cc4)c3C=C1CC[C@@]2(O)CCc1cc(C)ccn1` [Example 33, (4aS,5R)-4a-Ethyl-1-(4-fluorophenyl)-5-[2-(4-methylpyridin-2-yl)ethyl]-1,4,4a,5,6,7-hexahydrocyclopenta[f]indazol-5-ol] are 84 nM and 82%.
In the same order, the values of `CC[C@]12Cc3cnn(-c4cccnc4)c3C=C1CC[C@@]2(O)CCc1cccc(F)c1C(N)=O` [Example 14, 2-{2-[(4aS,5R)-4a-Ethyl-5-hydroxy-1-(pyridin-3-yl)-1,4,4a,5,6,7-hexahydrocyclopenta[f]indazol-5-yl]ethyl}-6-fluorobenzamide] are 43 nM and 88%.
In the same order, the values of `CC[C@]12Cc3cnn(-c4cccc(F)c4)c3C=C1CC[C@@]2(O)CCc1ccccc1C(N)=O` [Example 11, 2-{2-[(4aS,5R)-4a-Ethyl-1-(3-fluorophenyl)-5-hydroxy-1,4,4a,5,6,7-hexahydrocyclopenta[f]indazol-5-yl]ethyl}benzamide] are 80 nM and 82%.
Take `CC[C@]12Cc3cnn(-c4ccccc4)c3C=C1CC[C@@]2(O)CCc1ccccc1C(N)=O` [Example 20, 2-{2-[(4aS,5R)-4a-Ethyl-5-hydroxy-1-phenyl-1,4,4a,5,6,7-hexahydrocyclopenta[f]indazol-5-yl]ethyl}benzamide]: where the note is “U937 cells”, the EC50 turned out to be 28 nM. Besides, the maximal response (Emax) under setting [1] came to 86%.
Consider `CC[C@]12Cc3cnn(-c4ccc(F)cc4)c3C=C1CC[C@@]2(O)CC(O)c1c(F)ccnc1Cl` (stereo partly drawn) [Example 74, (4aS,5R)-5-[2-(2-Chloro-4-fluoropyridin-3-yl)-2-hydroxyethyl]-4a-ethyl-1-(4-fluorophenyl)-1,4,4a,5,6,7-hexahydrocyclopenta[f]indazol-5-ol], for which a half-maximal response (U937 cells) (EC50) required 103 nM. The molecule further gave an Emax under setting [1] of 72%.
In the same order, the values of `COc1cccc(CC[C@]2(O)CCC3=Cc4c(cnn4-c4ccc(F)cc4)C[C@@]32C2CC2)c1C(N)=O` [Example 38, 2-{2-[(4aR,5R)-4a-Cyclopropyl-1-(4-fluorophenyl)-5-hydroxy-1,4,4a,5,6,7-hexahydrocyclopenta[f]indazol-5-yl]ethyl}-6-methoxybenzamide] are 11 nM and 74%.
Regarding `CC[C@]12Cc3cnn(-c4ccc(F)cc4)c3C=C1CC[C@@]2(O)CCc1nccc(OC)c1C(F)C(N)=O` (stereo partly drawn) [Example 65, 2-(2-{2-[(4aS,5R)-4a-Ethyl-1-(4-fluorophenyl)-5-hydroxy-1,4,4a,5,6,7-hexahydrocyclopenta[f]indazol-5-yl]ethyl}-4-methoxypyridin-3-yl)-2-fluoroacetamide], the EC50 (U937 cells) was 195 nM. Under setting [1], this molecule yielded an Emax of 63%.
`NC(=O)c1ccccc1CC[C@]1(O)CCC2=Cc3c(cnn3-c3ccccc3)C[C@@]21C1CC1` [Example 29, 2-{2-[(4aR,5R)-4a-Cyclopropyl-5-hydroxy-1-phenyl-1,4,4a,5,6,7-hexahydrocyclopenta[f]indazol-5-yl]ethyl}benzamide] gave a concentration giving a half-maximal response (EC50) (U937 cells) of 47 nM. Under setting [1], this molecule registered an Emax of 69%.
